This note sets out measurements from patent US7402696B2, “Benzene compounds” (Ajinomoto Co., Inc., priority 2004, dated 2008).

For the first assay, the target named is T1, ACC (acetyl CoA carboxylase) purified from liver of male SD rat (Rattus norvegicus, UniProt P11497).
T1 construct: applied to a monomeric avidin sepharose column, and washed with buffer B. The ACC was eluted with buffer B containing 2 mM d-biotin; from tissue; host or cells: liver of male SD rat
Nature of the assay: Measurement of ACC inhibition activity ([14C]-NaHCO3 incorporation). The assay is classed as biochemical. The following applies: ACC inhibition activity rate at 1 μM; Table 2-III, Mode 3 acetylene/oxadiazole/thiazole compounds (numbers = x-III); read-out: ACC Inhibition (%). Here is the method: A male SD rat was deprived of food for two days and then fed a high-sucrose diet (component) for two days. While anesthetized with ether, the descending vena cava was cut upon, the animal was bled, and the liver was rapidly recovered. In an ice-cooled buffer solution A (225 mM mannitol, 75 mM sucrose, 10 mM Tris-HCl (pH 7.5), 0.05 mM EDTA, 5 mM potassium citrate, 2.5 mM MgCl2, 10 mg/L pepstatin A, 10 mg/L leupeptin, 1 mM PMSF), the liver was homogenized with a polytone homogenizer. A quantity of buffer A nine times the weight of the liver was added, the mixture was centrifuged for 10 minutes at 1,000 g, the supernatant was recovered, and the supernatant was centrifuged for another 10 minutes at 17,000 g.
Ammonium sulfate was added to 35 percent saturation to the obtained supernatant. The mixture was stirred for 45 minutes and then centrifuged for 10 minutes at 17,000 g. Buffer solution B (100 mM Tris-HCl (pH 7.5), 500 mM NaCl, 1 mM EDTA, 0.1 mM DTT, 10 percent glycerol, 10 mg/L pepstatin A, 10 mg/L leupeptin, 0.5 mM PMSF) was added to the obtained precipitate and dissolved. The solution was then centrifuged for 20 minutes at 40,000 g. The supernatant was dialyzed overnight against buffer C (100 mM Tris-HCl (pH 7.5), 500 mM NaCl, 1 mM EDTA, 0.1 mM DTT, 5 percent glycerol).
The dialyzed supernatant was passed through a […], applied to a monomeric avidin sepharose column, and washed with buffer B. The ACC was eluted with buffer B containing 2 mM d-biotin.
(2 Measurement of ACC Inhibition Activity)
The compounds synthesized in the above-described embodiments were dissolved in DMSO and charged to glass vials. 250 μL of ACC-containing reaction solution (40 mM Tris-HCl (pH 7.5), 40 mM MgCl2, 40 mM sodium citrate, and 2 mM DTT) was added. The mixture was heated for 30 minutes at 37° C. in a thermostatic chamber and then cooled with ice. To reaction solution 1 was added 250 μL of reaction solution 2 containing [14C]—NaHCO3 (40 mM Tris-HCl (pH 7.5), 2 mM DTT, 8 mM ATP, 0.5 mM acetyl CoA) and the mixture was heated for 10 minutes at 37° C. 100 μL of 1N HCl was added to stop the reaction. Water in the reaction solution was removed with a centrifugal evaporator, a scintillator was added, the solid component was dissolved, and the 14C radioactivity was measured with a liquid scintillation counter. The ACC inhibition activity of each compound was calculated from the following equation and converted to the ACC inhibition activity rate (%) at 1 μM.
ACC inhibition rate (%)=(1−(a−c)/(b−c))×100 a. Radioactivity when test drug added b: Radioactivity when test drug not added c: Blank* *Reaction solution 1 to which 100 μL of 1N HCl was added before mixing reaction solution 1 and reaction solution 2
Broadly, the inhibition is how much of the control response was suppressed. `O=C(O)c1ccccc1-c1nc(-c2ccc(-c3nc(-c4cc(C(F)(F)F)cc(C(F)(F)F)c4)cs3)cc2)cs1` [compound 1]: the inhibition at 1 µM turned out to be 62%.

The assay is the same for the next values; noted with them: ACC inhibition activity rate at 1 μM; Table 3-I, Mode 1 quinoline compounds (numbers = x-I); read-out: ACC Inhibition (%).
`O=C(Nc1ccccc1C(=O)O)c1ccc2nc(-c3cc(C(F)(F)F)cc(C(F)(F)F)c3)ccc2c1` [compound 3]: the inhibition at 1 µM amounted to 53%.

Consider `CCCCS(=O)(=O)NC(=O)c1ccccc1NC(=O)c1ccc2nc(-c3cc(C(F)(F)F)cc(C(F)(F)F)c3)ccc2c1` [compound 4], for which the inhibition at 1 µM was 78%.

`CCCCCC(=O)NS(=O)(=O)c1ccccc1NC(=O)c1ccc2nc(-c3cc(C(F)(F)F)cc(C(F)(F)F)c3)ccc2c1` [compound 7]: the inhibition at 1 µM stood at 72%.

Still in this assay, the particulars now being: ACC inhibition activity rate at 1 μM; Table 3-II, Mode 2 benzimidazole compounds (numbers = x-II); read-out: ACC Inhibition (%).
Take `CCCCCC(=O)NS(=O)(=O)c1ccccc1NC(=O)c1ccc2c(c1)nc(-c1cc(C(F)(F)F)cc(C(F)(F)F)c1)n2CCC(C)C` [compound 1]: the inhibition at 1 µM came out at 50%.

For `CCCCCC(=O)NS(=O)(=O)c1ccccc1NC(=O)c1ccc2c(c1)nc(-c1cc(C(F)(F)F)cc(C(F)(F)F)c1)n2-c1ccc(C(F)(F)F)cc1` [compound 2], the inhibition at 1 µM stood at 92%.

With `CCCCCC(=O)NS(=O)(=O)c1ccccc1NC(=O)c1ccc2nc(-c3cccc(C(F)(F)F)c3)n(-c3ccccc3)c2c1` [compound 4], the inhibition at 1 µM was found to be 54%.

Regarding `CC(C)(C)c1ccc(C(=O)NS(=O)(=O)c2ccccc2NC(=O)c2ccc3nc(-c4cccc(C(F)(F)F)c4)n(-c4ccccc4)c3c2)cc1` [compound 5], the inhibition at 1 µM came to 89%.

For `O=C(O)c1cccc(-c2noc(-c3ccc4c(c3)nc(-c3ccccc3)n4-c3ccc(C(F)(F)F)cc3)n2)c1` [compound 8], the inhibition at 1 µM was 57%.

Staying with this assay, now noted: ACC inhibition activity rate at 1 μM; Table 4-A, further compounds of Modes 2 and 3; read-out: ACC Inhibition (%).
Turning to `CC(C)CCn1c(-c2ccccc2)nc2cc(-c3nc(-c4cccc(C(=O)NS(=O)(=O)c5ccccc5)c4)no3)ccc21` [Compound 9-II], the inhibition at 1 µM stood at 72%.

Turning to `Nc1ccc(S(=O)(=O)NC(=O)c2cccc(-c3nc(-c4ccc(-c5csc(-c6ccccc6)n5)cc4)no3)c2)cc1` [Compound 132-III], the inhibition at 1 µM was 96%.

Turning to `O=C(NS(=O)(=O)c1ccc(-c2nc(-c3ccc(-c4csc(-c5ccccc5)n4)cc3)no2)cc1)c1ccccc1` [Compound 135-III], the inhibition at 1 µM stood at 98%.

Take `O=C(NS(=O)(=O)c1cccc(-c2nc(-c3ccc(-c4csc(-c5ccccc5)n4)cc3)no2)c1)c1ccccc1` [Compound 136-III]: the inhibition at 1 µM is 94%.

`Nc1ccccc1S(=O)(=O)NC(=O)c1cccc(-c2nc(-c3ccc(-c4csc(-c5ccccc5)n4)cc3)no2)c1` [Compound 137-III]: the inhibition at 1 µM turned out to be 96%.

`O=C(NS(=O)(=O)c1cccc(-c2nc(-c3ccc(-c4csc(-c5ccccc5)n4)cc3)no2)c1)c1ccc(-n2ccnc2)cc1` [Compound 138-III]: the inhibition at 1 µM amounted to 100%.

As for `Cn1cnc(S(=O)(=O)NC(=O)c2cccc(-c3nc(-c4ccc(-c5csc(-c6ccccc6)n5)cc4)no3)c2)c1` [Compound 139-III], the inhibition at 1 µM was 96%.

For the molecule `COC(=O)c1ccc(S(=O)(=O)NC(=O)c2cccc(-c3nc(-c4ccc(-c5csc(-c6ccccc6)n5)cc4)no3)c2)cc1` [Compound 140-III], the inhibition at 1 µM amounted to 92%.

On to `Cc1ccccc1S(=O)(=O)NC(=O)c1cccc(-c2nc(-c3ccc(-c4csc(-c5ccccc5)n4)cc3)no2)c1` [Compound 141-III], for which the inhibition at 1 µM was found to be 100%.

On to `O=C(/C=C/c1ccccc1)NS(=O)(=O)c1cccc(-c2nc(-c3ccc(-c4csc(-c5ccccc5)n4)cc3)no2)c1` [Compound 142-III], for which the inhibition at 1 µM came to 100%.

`O=C(NS(=O)(=O)c1cccc(-c2nc(-c3ccc(-c4csc(-c5ccccc5)n4)cc3)no2)c1)c1cccs1` [Compound 143-III]: the inhibition at 1 µM worked out at 83%.

Consider `O=C(O)c1ccc(S(=O)(=O)NC(=O)c2cccc(-c3nc(-c4ccc(-c5csc(-c6ccccc6)n5)cc4)no3)c2)cc1` [Compound 144-III], for which the inhibition at 1 µM came to 97%.

`O=C(NS(=O)(=O)c1cccc(-c2nc(-c3ccc(-c4csc(-c5ccccc5)n4)cc3)no2)c1)c1cccnc1` [Compound 145-III]: the inhibition at 1 µM was 84%.

Take `COc1cccc(OC)c1C(=O)NS(=O)(=O)c1cccc(-c2nc(-c3ccc(-c4csc(-c5ccccc5)n4)cc3)no2)c1` [Compound 146-III]: the inhibition at 1 µM stood at 79%.

Turning to `CCN(CC)c1ccc(-c2csc(-c3ccc(-c4csc(-c5cccc(S(=O)(=O)NC(=O)c6ccncc6)c5)n4)cc3)n2)cc1` [Compound 147-III], the inhibition at 1 µM came out at 65%.

Still in this assay, the particulars now being: ACC inhibition activity rate at 1 μM; Table 4-IV, Mode 4 benzenediamine compounds (numbers = x-IV); read-out: ACC Inhibition (%).
In the case of `COC(=O)c1cccc(S(=O)(=O)NC(=O)c2cccc(-c3nc(-c4ccc(N(C)CCC(C)C)c(NCc5ccc(OCCO)cc5)c4)no3)c2)c1` [Compound 133-IV], the inhibition at 1 µM was found to be 99%.

Take `CC(C)CCN(C)c1ccc(-c2noc(-c3cccc(C(=O)NS(=O)(=O)c4cccc(C(=O)O)c4)c3)n2)cc1NCc1ccc(OCCO)cc1` [Compound 134-IV]: the inhibition at 1 µM turned out to be 89%.

As for `CC(C)CCN(C)c1ccc(-c2noc(-c3cccc(C(=O)NS(=O)(=O)c4cn(C)cn4)c3)n2)cc1NCc1ccc(OCCO)cc1` [Compound 137-IV], the inhibition at 1 µM amounted to 79%.

In the case of `CC(C)CCN(C)c1ccc(C(=O)NC(CC(=O)NS(=O)(=O)c2ccc(C(=O)O)cc2)C2CCCCC2)cc1NCc1ccccc1` (centres unmarked) [Compound 138-IV], the inhibition at 1 µM was found to be 63%.

Consider `CC(C)CCN(C)c1ccc(-c2noc(-c3cccc(C(=O)NS(=O)(=O)c4cccc(C(=O)O)c4)c3)n2)cc1N(C)Cc1ccc(OCCO)cc1` [Compound 139-IV], for which the inhibition at 1 µM is 100%.

On to `CC(C)CCN(C)c1ccc(-c2noc(-c3cccc(C(=O)NS(=O)(=O)c4cn(C)cn4)c3)n2)cc1N(C)Cc1ccc(OCCO)cc1` [Compound 142-IV], for which the inhibition at 1 µM came to 93%.

For `CC(C)CCN(C)c1ccc(C(=O)N[C@H]2CCCC[C@H]2C(=O)NS(=O)(=O)c2ccccc2)cc1NCc1ccccc1` [Compound 144-IV], the inhibition at 1 µM stood at 94%.

`Cc1ccccc1S(=O)(=O)NC(=O)[C@@H]1CCCC[C@H]1NC(=O)c1ccc(N(C)CCC(C)C)c(NCc2ccccc2)c1` [Compound 145-IV]: the inhibition at 1 µM came out at 57%.

With `Cc1ccccc1S(=O)(=O)NC(=O)[C@@H]1CCCC[C@@H]1NC(=O)c1ccc(N(C)CCC(C)C)c(NCc2ccccc2)c1` [Compound 146-IV], the inhibition at 1 µM came to 72%.

As for `CC(C)CCN(C)c1ccc(C(=O)NC(CC(=O)NS(=O)(=O)c2cn(C)cn2)C2CCCCC2)cc1NCc1ccccc1` (centres unmarked) [Compound 147-IV], the inhibition at 1 µM was determined as 68%.

Regarding `CC(C)CCN(C)c1ccc(C(=O)NC(CC(=O)NS(=O)(=O)c2cn(C)cn2)C2CCCCC2)cc1N(C)Cc1ccccc1` (centres unmarked) [Compound 148-IV], the inhibition at 1 µM came out at 63%.

With `Cc1ccccc1S(=O)(=O)NC(=O)CC(NC(=O)c1ccc(N(C)CCC(C)C)c(N(C)CCc2ccccc2)c1)C1CCCCC1` (centres unmarked) [Compound 153-IV], the inhibition at 1 µM worked out at 86%.

Regarding `CN(c1ccc(C(=O)NC(CC(=O)NS(=O)(=O)c2ccccc2)C2CCCCC2)cc1NCCc1ccccc1)C1CC1` (centres unmarked) [Compound 157-IV], the inhibition at 1 µM worked out at 69%.

With `CN(c1ccc(C(=O)NC(CC(=O)NS(=O)(=O)c2ccccc2)C2CCCCC2)cc1NCCOCc1ccccc1)C1CC1` (centres unmarked) [Compound 158-IV], the inhibition at 1 µM is 65%.

`CC(C)CCN(C)c1ccc(C(=O)NC(CC(=O)NS(=O)(=O)c2cn(C)cn2)C2CCCCC2)cc1NCC1CCCCC1` (centres unmarked) [Compound 161-IV]: the inhibition at 1 µM is 71%.

On to `CC(C)CCN(C)c1ccc(C(=O)NC(CC(=O)NS(=O)(=O)c2cn(C)cn2)C2CCCCC2)cc1NCCc1ccccc1` (centres unmarked) [Compound 162-IV], for which the inhibition at 1 µM stood at 85%.

The assay is the same for the next values; noted with them: read-out: ACC Inhibition (%).
For `CCOP(=O)(/C=C/c1ccc(CNc2cc(-c3noc(-c4cccc(C(=O)NS(=O)(=O)c5ccccc5C)c4)n3)ccc2N(C)CCC(C)C)cc1)OCC` [Compound 140-IV], the inhibition at 1 µM worked out at 100%.
